Test results from PubChem BioAssay (NCI).
Several values for one entry are separate records, joined by “and”; a condition that tells them apart may be missing. Equal values may be shown once.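 Interpolation was linear, between the two tested concentrations surrounding the appropriate level; five concentrations were tested over 48 hours in 96-well plates. GI50 = concentration required for 50% inhibition of growth. TGI: total growth inhibition.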

system: TK-10 renal; assay: NCI tumour cell line growth inhibition, 48 h

| SMILES | TGI [µM] | GI50 [µM] |
| --- | --- | --- |
| Clc1ccc2c(c1)[nH]c1c2nc2ccccn21 | 31.2 | – |
| CCOC(=O)c1cnc2c(ccc3[nH]n(C)nc32)c1=O | > 100 | – |
| NC(=S)N/N=C(\CC1OC(=O)c2ccccc21)c1ccc(Cl)cc1 (centres undefined) | > 100 | – |
| COc1ccc2occ(CCC(=O)O)c2c1 | > 100 | – |
| COC(=O)C(C(=O)c1ccccc1)C(C(=O)C(=O)Nc1ccc(OC)cc1OC)C(=O)C(=O)c1ccc(C)cc1 (centres undefined) | > 100 | – |
| CC1(C)COC(C2(C)C(=O)C=C(c3ccccc3)c3ccccc32)=N1 (centres undefined) | > 100 | – |
| O=C(Nc1ccn(CCO)c(=O)n1)c1ccccc1 | > 100 | – |
| O=C1CCC2(c3ccc(Cl)cc3)Nc3ncccc3N12 (centres undefined) | > 100 | – |
| CC12C/C(=C\c3ccccc3)C(=O)C3C1CCCC32 | > 100 | – |
| OC(CC1SCCCS1)c1ccccc1 (centres undefined) | > 100 | – |
| CCCCOC(=O)CNC(=O)OC/C=C/C#CC#C/C=C/COC(=O)NCC(=O)OCCCC | > 100 | > 100 |
| O=C1c2ccccc2C(=O)N1CCn1ccc(NC(c2ccccc2)(c2ccccc2)c2ccccc2)nc1=O | 69.5 | – |
| CC(C)(C)NNC(=O)CCn1[nH]c(=O)c(Cl)c(Cl)c1=O | > 100 | – |
| CCC12CCCN(Cc3ccccc3)C1c1c(n(C)c3ccccc13)CC2 (centres undefined) | > 253 | – |
| CCN(CC)CCCN1CCc2c([nH]c3ccccc23)C1c1cccnc1 (centres undefined) | > 100 | – |
| Nc1nc(Cl)cc(NCCCCCCCCNc2cc(Cl)nc(N)n2)n1 | > 100 | – |
| CC(C)N(C(=O)C12C3C4C1C1C4(C#N)C3C12C#N)C(C)C (centres undefined) | > 100 | – |
| O=C1CCC(Cl)=CC2CCCN12 (centres undefined) | > 100 | – |
| c1ccc2cc(-c3cc4ccccc4s3)ccc2c1 | > 100 | – |
| Cc1ccc(S(=O)(=O)N(C=O)N=C2CCN(Cc3ccccc3)CC2)cc1 | > 100 | – |

| SMILES | TGI [µM] | GI50 [µM] |
| --- | --- | --- |
| CC(C)C(CCl)NC(=O)c1cccc(C(=O)N[C@H](CCl)C(C)C)n1 (stereo in doubt) | > 100 | – |
| CCC(=O)CC(=O)CCC(=O)Nc1cc(C)ccc1C | > 100 | – |
| COC(=O)COc1ccccc1/C=C1\N=C(c2ccccc2)N(c2cc(C(F)(F)F)ccc2Cl)C1=O | > 100 | 56.3 |
| C=C1C(=O)OC2CC(C)C(C(CC(C)=O)OC(C)=O)=CCC12 (centres undefined) | 31.1 | – |
| CC(=O)OC1COC(Oc2c(C)c3c4c(c2O)[C@@H](C)CC[C@@H]4[C@@H](C)C[C@H]3C=C(C)C)C(O)C1OC(C)=O (some centres undefined) | 46.3 | 24.1 |
| S=C(Nc1ccc(Cl)cc1)Nc1ccc(-c2nc3ccccc3s2)cc1 | 44.5 | 15.1 |
| CC(=O)Nc1ccc(S(=O)(=O)N2C(=O)CCC2C(=O)Nc2ccc(Br)cc2)cc1 (centres undefined) | 15.4 | 4.49 |
| CC(=O)CCn1ncc(Cl)c(Cl)c1=O | > 100 | – |
| CO/N=C(/C)c1cccc(Nc2cc(-n3nnc4ccccc43)nc3ccccc23)c1 | > 100 | 26 |
| C[N+](C)(C)CC1CCCc2ccccc2C1=O (centres undefined) | 36.8 | – |
| COc1cc(C(=O)N2CCN(C=O)C2=S)cc(OC)c1OC | 36.7 | 17.1 |
| Cn1c(I)c(C#CCO[Si](C)(C)C(C)(C)C)c(=O)[nH]c1=O | 30.2 | 16.3 |
| CN1CC(=O)N2Cc3ccccc3-n3cccc3C2C1 (centres undefined) | > 100 | – |
| CCCCC#CC1=C(Br)C(=O)OC1 | 4.53 | 1.8 |
| O=C(Nc1ccc(Br)cc1F)c1cc(F)ccc1O | 18 | 3.26 |
| CC/C=C\C[C@H](O)C/C=C1/C(=O)C(Cl)=C[C@@H]1C/C=C\CCCC(=O)OC | 3.09 | 0.946 |
| c1ccc(-c2nnc(-c3ccccn3)s2)nc1 | > 100 | > 100 |
| CN1CCN(C2CCN(C(=O)Nc3cc(Oc4ccc(NC(=O)C5(C(=O)Nc6ccc(F)cc6)CC5)c(F)c4)ccn3)CC2)CC1 | > 10 | 0.365 |
| CCN1CCN(C(=O)[C@@]2(C)CC[C@]3(C)CC[C@]4(C)C(=CC(=O)[C@@H]5[C@@]6(C)CC[C@H](OC7C[C@@H](O)[C@@H](O)C(C)O7)C(C)(C)[C@@H]6CC[C@]54C)[C@@H]3C2)CC1 (some centres undefined) | 1.9 | 0.806 |
| Nc1nn2cc(F)cnc2c1C(=O)Nc1cncc(F)c1N1CCC(C(=O)N2CCN(C3COC3)CC2)CC1 | > 69.9 | 0.888 |

system: U251 CNS; assay: NCI tumour cell line growth inhibition, 48 h

| SMILES | GI50 | TGI |
| --- | --- | --- |
| Clc1ccc2c(c1)[nH]c1c2nc2ccccn21 | > 100 µM and 11.9 µM | > 100 µM and 24.5 µM |
| CCOC(=O)c1cnc2c(ccc3[nH]n(C)nc32)c1=O | – | 68.9 µM |
| NC(=S)N/N=C(\CC1OC(=O)c2ccccc21)c1ccc(Cl)cc1 (centres undefined) | – | 73.6 µM |
| COc1ccc2occ(CCC(=O)O)c2c1 | – | > 100 µM |
| COC(=O)C(C(=O)c1ccccc1)C(C(=O)C(=O)Nc1ccc(OC)cc1OC)C(=O)C(=O)c1ccc(C)cc1 (centres undefined) | – | > 100 µM |
| CC1(C)COC(C2(C)C(=O)C=C(c3ccccc3)c3ccccc32)=N1 (centres undefined) | – | > 100 µM |
| O=C(Nc1ccn(CCO)c(=O)n1)c1ccccc1 | – | > 100 µM |
| O=C1CCC2(c3ccc(Cl)cc3)Nc3ncccc3N12 (centres undefined) | – | > 100 µM |
| CC12C/C(=C\c3ccccc3)C(=O)C3C1CCCC32 | – | > 100 µM |
| OC(CC1SCCCS1)c1ccccc1 (centres undefined) | – | > 100 µM |
| CCCCOC(=O)CNC(=O)OC/C=C/C#CC#C/C=C/COC(=O)NCC(=O)OCCCC | > 100 µM | > 100 µM |
| O=C1c2ccccc2C(=O)N1CCn1ccc(NC(c2ccccc2)(c2ccccc2)c2ccccc2)nc1=O | – | 32.3 µM |
| CC(C)(C)NNC(=O)CCn1[nH]c(=O)c(Cl)c(Cl)c1=O | – | > 100 µM |
| CCC12CCCN(Cc3ccccc3)C1c1c(n(C)c3ccccc13)CC2 (centres undefined) | – | > 253 µM |
| CCN(CC)CCCN1CCc2c([nH]c3ccccc23)C1c1cccnc1 (centres undefined) | – | > 100 µM |
| Nc1nc(Cl)cc(NCCCCCCCCNc2cc(Cl)nc(N)n2)n1 | – | > 100 µM |
| CC(C)N(C(=O)C12C3C4C1C1C4(C#N)C3C12C#N)C(C)C (centres undefined) | – | > 100 µM |
| O=C1CCC(Cl)=CC2CCCN12 (centres undefined) | – | > 100 µM |
| c1ccc2cc(-c3cc4ccccc4s3)ccc2c1 | – | > 100 µM |
| Cc1ccc(S(=O)(=O)N(C=O)N=C2CCN(Cc3ccccc3)CC2)cc1 | – | > 100 µM |

| SMILES | GI50 | TGI |
| --- | --- | --- |
| CC(C)C(CCl)NC(=O)c1cccc(C(=O)N[C@H](CCl)C(C)C)n1 (stereo in doubt) | – | > 100 µM |
| CCC(=O)CC(=O)CCC(=O)Nc1cc(C)ccc1C | – | > 100 µM |
| COC(=O)COc1ccccc1/C=C1\N=C(c2ccccc2)N(c2cc(C(F)(F)F)ccc2Cl)C1=O | 55.9 µM | > 100 µM |
| C=C1C(=O)OC2CC(C)C(C(CC(C)=O)OC(C)=O)=CCC12 (centres undefined) | – | 29.6 µM |
| CC(=O)OC1COC(Oc2c(C)c3c4c(c2O)[C@@H](C)CC[C@@H]4[C@@H](C)C[C@H]3C=C(C)C)C(O)C1OC(C)=O (some centres undefined) | 10.4 µM | 22.5 µM |
| S=C(Nc1ccc(Cl)cc1)Nc1ccc(-c2nc3ccccc3s2)cc1 | 19 µM | > 100 µM |
| CC(=O)Nc1ccc(S(=O)(=O)N2C(=O)CCC2C(=O)Nc2ccc(Br)cc2)cc1 (centres undefined) | 1.89 µM | 11.3 µM |
| CO/N=C(/C)c1cccc(Nc2cc(-n3nnc4ccccc43)nc3ccccc23)c1 | > 100 µM | > 100 µM |
| C[N+](C)(C)CC1CCCc2ccccc2C1=O (centres undefined) | – | 12.4 µM |
| COc1cc(C(=O)N2CCN(C=O)C2=S)cc(OC)c1OC | 16.4 µM | 37.8 µM |
| Cn1c(I)c(C#CCO[Si](C)(C)C(C)(C)C)c(=O)[nH]c1=O | 17.4 µM | 31.9 µM |
| CN1CC(=O)N2Cc3ccccc3-n3cccc3C2C1 (centres undefined) | – | > 100 µM |
| CCCCC#CC1=C(Br)C(=O)OC1 | 1.59 µM | > 20.1 µM |
| O=C(Nc1ccc(Br)cc1F)c1cc(F)ccc1O | 0.609 µM | > 100 µM |
| CC/C=C\C[C@H](O)C/C=C1/C(=O)C(Cl)=C[C@@H]1C/C=C\CCCC(=O)OC | 0.339 µM | 1.39 µM |
| c1ccc(-c2nnc(-c3ccccn3)s2)nc1 | > 100 µM | > 100 µM |
| CN1CCN(C2CCN(C(=O)Nc3cc(Oc4ccc(NC(=O)C5(C(=O)Nc6ccc(F)cc6)CC5)c(F)c4)ccn3)CC2)CC1 | – | > 10 µM |
| CCN1CCN(C(=O)[C@@]2(C)CC[C@]3(C)CC[C@]4(C)C(=CC(=O)[C@@H]5[C@@]6(C)CC[C@H](OC7C[C@@H](O)[C@@H](O)C(C)O7)C(C)(C)[C@@H]6CC[C@]54C)[C@@H]3C2)CC1 (some centres undefined) | 1.52 µM | 5.68 µM |
| Nc1nn2cc(F)cnc2c1C(=O)Nc1cncc(F)c1N1CCC(C(=O)N2CCN(C3COC3)CC2)CC1 | 0.656 µM | > 100 µM |
